Measurements from patent publication US20240252508A1, “Novel glucose uptake inhibitors for use in the treatment of cancer” (NOVELYEAST BV, priority 2021, published 2024).

Tests used:
[1] = test system: U266 multiple myeloma cell line; assay: U266 proliferation (cell count); type: cell-based, human; conditions: 25 μM, 4 days, RPMI with 1 mM glucose
Protocol: a. Cell count of the U266 multiple myeloma cell line after 4 days of growth on RPMI medium with 1 mM glucose. Cells were treated with either DMSO or 25 μM of WBC-A, -15C, -4C or -11C. Glucose consumption (b.) or lactate secretion (c.) rates are shown for U266 cells incubated in RPMI medium supplemented with 1 mM glucose for 8 h.

[2] = test system: tps1Δ cells; assay: Glu6P and Fru1,6bisP levels after glucose addition to tps1Δ cells; type: cell-based, S. cerevisiae
Protocol: For measuring metabolite levels, cells were typically grown in Complete Synthetic medium. […] However, when comparing the effect of Warbicins on metabolite profiles of wild type and tps1Δ strains (FIG. 2f-k), cells were grown on 2% galactose. When grown to exponential phase, cells were harvested by centrifugation and washed twice with ice-cold 25 mM 2-(N-Morpholino)ethanesulfonic acid (MES) buffer, pH 6. Cells were suspended in Complete Synthetic medium without sugar at a concentration of 75 mg (wet weight)/mL followed by a temperature equilibration at 30° C. in a shaking water bath for 30 min. Depending on the experiment, a final concentration of 2.5 mM, 7.5 mM or 10 mM glucose was added to the cell suspension. Compounds were added 10 min prior to glucose addition. […]
Through endpoint measurement of the absorbance of NADH or NADPH at 340 nm, metabolite concentrations were calculated by applying Lambert's Law. Different metabolites were measured through the use of coupled enzymatic reactions. […] Depending on the measured metabolite, different co-factors and auxiliary enzymes were added. For measuring glucose-6-phosphate, 0.8 mg/ml NADP^+ was added to the assay buffer after which the baseline absorbance was measured. […] After stabilization of the OD340 spectra, ATP concentrations were measured by additionally adding 10 mM MgCl2 and 0.5 mM glucose to the assay buffer. […]

[3] = test system: tps1Δ cells; assay: Growth rescue of tps1Δ strain on glucose (growth curves, 2% galactose medium); type: cell-based, S. cerevisiae
Outline: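 tps1Δ yeast pregrown in Complete Synthetic medium with 2% galactose, washed, resuspended to OD 0.1; compounds added 10 min before glucose. Growth followed as OD595 every 30 min at 30 °C in at least three technical replicates.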

[4] = test system: hexokinase; assay: In vitro hexokinase activity in extracts of wild type cells; type: biochemical, S. cerevisiae; conditions: 50 μM WBC-A
Protocol: In vitro hexokinase activity was determined as described previously 43, s. As such, cells were first grown to exponential phase on complete Synthetic medium supplemented with 2% galactose. The cells were harvested and washed with ice-cold 25 mM MES buffer pH 6. Subsequently, cells were resuspended in lysis buffer (50 mM HEPES pH 7, 150 mM NaCl, 2.5 mM MgCl2, 5% glycerol and 1% Triton X-100) containing protease inhibitor after which the cells were mechanically lysed. After protein level determination, total protein concentration was diluted to 0.1 mg/mL in reaction buffer (50 mM HEPES pH 7, 150 mM NaCl, 2.5 mM MgCl2, 5% glycerol). For measuring activity, reaction buffer was supplemented with 0.8 mg/mL NADP^+ and 50 μg/mL Glu6P dehydrogenase. After temperature equilibration of the plate at 30° C., the reaction was started by adding both ATP and glucose to the reaction buffer. OD340 was measured using the Synergy H1 Hybrid reader and hexokinase activity was determined based on the linear increase of absorbance in the first 10-20s.

Cc1nc(Sc2nnc3n2CCCCC3)c2c(-c3cccs3)csc2n1 [WBC-A]
Proliferation of U266 cell line [1]: inhibit proliferation | Glu6P and Fru1,6bisP hyperaccumulation after addition of 2.5 mM glucose [2]: concentration-dependent gradual drop in Glu6P and a more precipitous drop in Fru1,6bisP | Rescue of tps1Δ growth on galactose in the presence of 5 mM glucose ([3]; 100 μM WBC-A, 5 mM glucose): rescued growth | Rescue of tps1Δ growth in the presence of 7.5 mM glucose ([3]; 100 μM WBC-A, 7.5 mM glucose): not able to restore growth | Growth of tps1Δ cells on galactose in the absence of glucose ([3]; 100 μM WBC-A, 2% galactose): significant growth delay | Minimal rescue concentration for growth of tps1Δ cells on 2.5 mM glucose ([3]; 2.5 mM glucose): 25 µM | Effect on in vitro hexokinase activity [4]: No significant effect
